The target of assay [1] is T1, Estrogen receptor (Rattus norvegicus, UniProt P06211).
T1 sequence (P06211 whole entry): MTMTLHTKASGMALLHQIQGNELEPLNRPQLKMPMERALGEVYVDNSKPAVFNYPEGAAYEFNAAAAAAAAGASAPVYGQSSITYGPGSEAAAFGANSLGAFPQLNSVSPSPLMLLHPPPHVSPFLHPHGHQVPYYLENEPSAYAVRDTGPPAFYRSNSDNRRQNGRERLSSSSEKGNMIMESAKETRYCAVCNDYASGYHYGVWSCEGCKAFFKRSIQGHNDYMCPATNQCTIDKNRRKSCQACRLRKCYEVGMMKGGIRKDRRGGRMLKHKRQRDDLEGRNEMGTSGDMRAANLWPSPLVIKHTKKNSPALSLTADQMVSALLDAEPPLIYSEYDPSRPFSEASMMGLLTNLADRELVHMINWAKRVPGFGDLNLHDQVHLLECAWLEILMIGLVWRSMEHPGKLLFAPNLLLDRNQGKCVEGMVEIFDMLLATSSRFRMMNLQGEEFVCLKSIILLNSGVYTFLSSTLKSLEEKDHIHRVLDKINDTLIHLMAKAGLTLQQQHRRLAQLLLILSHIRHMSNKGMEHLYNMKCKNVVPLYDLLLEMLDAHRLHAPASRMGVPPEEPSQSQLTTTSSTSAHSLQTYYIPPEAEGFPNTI
Description: Binding affinity for rat estrogen receptor alpha

The next assay concerns the target Estrogen receptor beta (Rattus norvegicus, UniProt Q62986).
Assay [2] has as its target T2, Estrogen receptor (Homo sapiens, UniProt Q92731+P03372). The note with it: mcf7.
Description: Half maximal inhibitory concentration against estrogen-induced proliferation of MCF-7 breast cells by 10 pM E2
The target in assay [3] is T2, Estrogen receptor. The note with it: ishikawa.
Description: Inhibitory concentration against estrogen-induced proliferation of Ishikawa uterine cells by 1 nM E2

Chain of Estrogen receptor beta (Q62986 whole entry): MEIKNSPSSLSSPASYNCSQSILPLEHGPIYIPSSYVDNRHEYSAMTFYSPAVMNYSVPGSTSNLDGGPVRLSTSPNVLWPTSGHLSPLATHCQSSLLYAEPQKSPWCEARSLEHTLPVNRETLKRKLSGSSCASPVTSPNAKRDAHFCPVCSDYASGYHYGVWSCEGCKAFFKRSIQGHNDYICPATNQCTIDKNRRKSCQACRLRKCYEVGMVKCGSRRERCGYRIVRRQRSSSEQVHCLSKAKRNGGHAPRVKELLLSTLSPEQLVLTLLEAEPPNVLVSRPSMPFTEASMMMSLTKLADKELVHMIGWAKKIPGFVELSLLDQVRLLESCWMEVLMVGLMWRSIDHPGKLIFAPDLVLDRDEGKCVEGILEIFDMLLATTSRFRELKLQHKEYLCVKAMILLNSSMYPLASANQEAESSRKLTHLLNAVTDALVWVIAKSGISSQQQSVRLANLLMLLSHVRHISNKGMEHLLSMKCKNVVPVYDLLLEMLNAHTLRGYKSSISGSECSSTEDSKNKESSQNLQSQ
Description for Estrogen receptor beta: Binding affinity for rat estrogen receptor beta

As to `Cl.Oc1ccc(-c2ccc3cc(O)ccc3c2Cc2ccc(OCCN3CCCCC3)cc2)cc1`, the inhibition constant Ki (commonly the equilibrium dissociation constant of an inhibitor or competing ligand from its target) on Estrogen receptor [1] amounted to 0.2 nM; at Estrogen receptor beta, 0.7 nM. The IC50 (in general, the concentration needed to halve the response being measured) against Estrogen receptor [2] came out at 0.2 nM; on Estrogen receptor [3] it was 1.14 nM.
Turning to `CS(=O)(=O)c1ccc(-c2ccc3cc(O)ccc3c2Cc2ccc(OCCN3CCCCC3)cc2)cc1.Cl`, the Ki was determined as 1.15 nM at Estrogen receptor [1] and 24.1 nM on Estrogen receptor beta. Besides, the IC50 was 3.4 nM on Estrogen receptor [2] and 4.78 nM against Estrogen receptor [3].
In the same order, the values of `Cl.Oc1ccc2c(Oc3ccc(OCCN4CCCCC4)cc3)c(-c3ccc(F)cc3)ccc2c1` are 0.25 nM, 0.3 nM, 0.34 nM and 3.18 nM.

The record behind these values is ChEMBL document CHEMBL1141131, “A selective estrogen receptor modulator designed for the treatment of uterine leiomyoma with unique tissue specificity for uterus and ovaries in rats” (J Med Chem, 2005).
